Assay results published in the supplement of paper PMC11208160.

test: recombinant UMI read abundance after kanamycin selection (control-corrected) (log10(CPM+1)); higher = more efficient recombination; extreme values may be limits of the assay; sequences stand for … in AGTGCAGAGAAAATCGGCCAGTTTTCTCTGCCTGCAGTCCGCATGCCGTGGGACCCCTTGGGTTCTAACCTGTTGCCTAGATTTATGCAGCGGACTGCCTTTCTCCCAAAGTGATAAACCGG…AGGTTGGTTTCACT; site = the 11-nt donor
Description: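 Pooled E. coli donor-specificity screen for the IS621 bridge recombinase. Each library member carries a reprogrammed 11-nt donor and a full-length LE bridge RNA expressed in cis from the natural promoter, with a paired donor-binding loop (8-nt LDG + 4-nt RDG) and a target-binding loop fixed to T5. It is co-electroporated with a T5 target plasmid; recombinase is induced with 0.07 mM IPTG and recombinants are selected on kanamycin. UMIs are counted as CPM, averaged over two biological replicates and corrected by the unselected control. Molecule = full bridge RNA written as DNA, built from the T5 scaffold: LDG = donor specificity nt 1-8, RDG = reverse complement of nt 8-11.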
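Note: IS621 bridge recombinase in Escherichia coli cells against a fixed T5 target plasmid.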

Sequence	recombinant UMI read abundance (log10)
CCTGATACATGGACCGGTTTTCCCGGTAATCCGTATTTGGC (site CCTGATACTGC)	0
CGGTATACATGGACCGGTTTTCCCGGTAATCCGTATTTGTT (site CGGAATCCTAA)	0
CGCCGTACATGGACCGGTTTTCCCGGTAATCCGTATTTGGT (site CGCCGTACTAC)	0.57
ACACGAACATGGACCGGTTTTCCCGGTAATCCGTATTTGTC (site ACAAGAACTGA)	0
CCCCACCCATGGACCGGTTTTCCCGGTAATCCGTATTTGTA (site CCCCACCCTTA)	0.00842
TTAAGTCCATGGACCGGTTTTCCCGGTAATCCGTATTTGTA (site TAAAGTCCTTA)	0.00903
TAGTTAGCATGGACCGGTTTTCCCGGTAATCCGTATTTGAA (site TAGTTAGCTTT)	1.33
GATTGCACATGGACCGGTTTTCCCGGTAATCCGTATTTGAC (site GATTGTACTGT)	0
CACTCCCCATGGACCGGTTTTCCCGGTAATCCGTATTTGAC (site CACTCCCCTGT)	1.54
AGAATGACATGGACCGGTTTTCCCGGTAATCCGTATTTGCA (site AGGAAGACTTG)	1.53
CCGGGCCCATGGACCGGTTTTCCCGGTAATCCGTATTTGTA (site CCGGGCCCTTA)	0.0269
ACGACGGCATGGACCGGTTTTCCCGGTAATCCGTATTTGAA (site ACGACGGCTTT)	1.59
CTGGAACCATGGACCGGTTTTCCCGGTAATCCGTATTTGAT (site CTGGAACCTAT)	0
ACCTGGACATGGACCGGTTTTCCCGGTAATCCGTATTTGGG (site ACCTCGACTCC)	0.00694
GGCAACCCATGGACCGGTTTTCCCGGTAATCCGTATTTGTT (site GGCAACCCTAA)	0.0163
CCGTTTACATGGACCGGTTTTCCCGGTAATCCGTATTTGCT (site CCTTTTACTAG)	0
GTTTGCACATGGACCGGTTTTCCCGGTAATCCGTATTTGTA (site GTGTGCACTTA)	0.0346
GTTACTGCATGGACCGGTTTTCCCGGTAATCCGTATTTGCC (site GGTACTGCTGG)	0.914
GATTATCCATGGACCGGTTTTCCCGGTAATCCGTATTTGCT (site GATTATCCTTG)	0
AAGACGCCATGGACCGGTTTTCCCGGTAATCCGTATTTGAT (site AAGACGCCTAT)	0.386
TACAGCGCATGGACCGGTTTTCCCGGTAATCCGTATTTGGC (site TACAGCGCTGC)	2.37
TAGTCGGCATGGACCGGTTTTCCCGGTAATCCGTATTTGAT (site TAGTCGGCTAT)	0.387
TGTTCCCCATGGACCGGTTTTCCCGGTAATCCGTATTTGTT (site TGTTCCCCTAA)	0.014
ACACGAACATGGACCGGTTTTCCCGGTAATCCGTATTTGTC (site AGACGAACTGA)	0

Sequence	recombinant UMI read abundance (log10)
TTGGAGGCATGGACCGGTTTTCCCGGTAATCCGTATTTGTG (site ATGGAGGCTCA)	0.342
GTTAGTACATGGACCGGTTTTCCCGGTAATCCGTATTTGGC (site GTTAGAACTGC)	0
CCCTAGCCATGGACCGGTTTTCCCGGTAATCCGTATTTGCC (site CCCTACCCTGG)	0
GTTACAACATGGACCGGTTTTCCCGGTAATCCGTATTTGGC (site GTTACAACTGC)	0
GCGCCTACATGGACCGGTTTTCCCGGTAATCCGTATTTGTT (site GCGCCTACTAA)	0.013
ACAGTATCATGGACCGGTTTTCCCGGTAATCCGTATTTGCA (site AAAGAATCTTG)	1.57
TCACGCCCATGGACCGGTTTTCCCGGTAATCCGTATTTGCT (site TCACGCCCTAG)	2.1
GTGTTTACATGGACCGGTTTTCCCGGTAATCCGTATTTGCG (site GTGTTTACTCG)	1.66
AGCCTAGCATGGACCGGTTTTCCCGGTAATCCGTATTTGTT (site AGCCTAGCTAT)	0.0124
TAGAATACATGGACCGGTTTTCCCGGTAATCCGTATTTGGA (site TAGAATACTTG)	0
CCCTTCTCATGGACCGGTTTTCCCGGTAATCCGTATTTGGG (site CCTTTCTCTCC)	0.00766
ATAAGGACATGGACCGGTTTTCCCGGTAATCCGTATTTGAC (site ATAAGGCCTGT)	0
CCCTAGACATGGACCGGTTTTCCCGGTAATCCGTATTTGGG (site ACCTAGACTCC)	0.036
CCGTTAACATGGACCGGTTTTCCCGGTAATCCGTATTTGTG (site CCGTTAGCTCA)	0.182
CTAGCTTCATGGACCGGTTTTCCCGGTAATCCGTATTTGTG (site CTAGCTTCTCA)	2.19
GATTGCCCATGGACCGGTTTTCCCGGTAATCCGTATTTGAT (site GATTGCCCTAT)	0
CCTGTATCATGGACCGGTTTTCCCGGTAATCCGTATTTGCA (site CCTGTATCTTG)	0
CTCTGCACATGGACCGGTTTTCCCGGTAATCCGTATTTGCT (site CTCTTCACTAG)	0.00616
CCGTTTACATGGACCGGTTTTCCCGGTAATCCGTATTTGCT (site CCGTGTACTAG)	0
GGCAGGCCATGGACCGGTTTTCCCGGTAATCCGTATTTGCT (site GGCAGGCCTAG)	0.861
TGCAAGGCATGGACCGGTTTTCCCGGTAATCCGTATTTGGT (site TGCGAGGCTAC)	0.0243
GAAACCACATGGACCGGTTTTCCCGGTAATCCGTATTTGGT (site GAAACCACTAC)	0.48
CCTAAAACATGGACCGGTTTTCCCGGTAATCCGTATTTGAT (site CCTAAAACTAT)	0
CTGCTACCATGGACCGGTTTTCCCGGTAATCCGTATTTGCG (site CTGCTACCTCG)	0.309

Sequence	recombinant UMI read abundance (log10)
GTACATGCATGGACCGGTTTTCCCGGTAATCCGTATTTGGT (site GTTCATGCTAC)	0.184
AGGTTCCCATGGACCGGTTTTCCCGGTAATCCGTATTTGTG (site AGGTTCCCTCC)	0.014
TAGCCTTCATGGACCGGTTTTCCCGGTAATCCGTATTTGGG (site TAGCCTTCTTC)	0.0097
TGTTCCCCATGGACCGGTTTTCCCGGTAATCCGTATTTGTG (site TGTTCCCCTTA)	0
CCCTTTTCATGGACCGGTTTTCCCGGTAATCCGTATTTGGG (site CCCTTTTCTCC)	0
CGTGCGGCATGGACCGGTTTTCCCGGTAATCCGTATTTGGA (site CGTGCGGCTTC)	0.167
CTGCTATCATGGACCGGTTTTCCCGGTAATCCGTATTTGCT (site CTGCTACCTAG)	0
TGTCCTACATGGACCGGTTTTCCCGGTAATCCGTATTTGGA (site TGTCCTACTTC)	0.0197
ACACAACCATGGACCGGTTTTCCCGGTAATCCGTATTTGAC (site ACACACCCTGT)	0
TCAAGGACATGGACCGGTTTTCCCGGTAATCCGTATTTGCA (site TCAAGGACTTG)	1.86
GGCAATCCATGGACCGGTTTTCCCGGTAATCCGTATTTGAA (site GGCAATACTTT)	0.0044
CAAGTTACATGGACCGGTTTTCCCGGTAATCCGTATTTGGG (site CAAGTTACTCC)	0.861
ACAGTATCATGGACCGGTTTTCCCGGTAATCCGTATTTGCA (site TCAGTAGCTTG)	0.0987
ATATTCACATGGACCGGTTTTCCCGGTAATCCGTATTTGTT (site ATATTCACTAA)	1.75
CGATGCGCATGGACCGGTTTTCCCGGTAATCCGTATTTGAT (site CGATGCGCTAT)	2.43
GAAGATTCATGGACCGGTTTTCCCGGTAATCCGTATTTGTT (site GAAGACTCTAA)	1.24
GCTTGCCCATGGACCGGTTTTCCCGGTAATCCGTATTTGAT (site GCCTGCCCTAT)	0.0885
CTCTCCACATGGACCGGTTTTCCCGGTAATCCGTATTTGCT (site CTCTCCACTAG)	2.34
CGTGGAACATGGACCGGTTTTCCCGGTAATCCGTATTTGGT (site CGTGGAACTAA)	0.427
ACTTGAACATGGACCGGTTTTCCCGGTAATCCGTATTTGAG (site ACTGGAACTCT)	1.23
AACTGTCCATGGACCGGTTTTCCCGGTAATCCGTATTTGAT (site AACGGTCCTAT)	0.0127
CCTAGTGCATGGACCGGTTTTCCCGGTAATCCGTATTTGGT (site GCTAGTGCTAC)	0.0365
CAGTCAACATGGACCGGTTTTCCCGGTAATCCGTATTTGGG (site CAGTCGACTCC)	0.0226
ATACTATCATGGACCGGTTTTCCCGGTAATCCGTATTTGTT (site ATACTATCTAA)	2.54
